Among the data in US20090156594A1, “HETEROCYCLIC KINASE MODULATORS” (SGX Pharmaceuticals, Inc., priority 2007, published 2009) are IC50 values, retold here.

The test system of one assay is GTL16 cells. The experiment in a line: 96-well XTT cell survival assay (GTL16 cells). Type of assay: cell-based. Conditions: Homo sapiens, GTL 16, 72 hours. On the procedure:
GTL16 cells were maintained in DMEM Medium supplemented with 10% fetal bovine serum (FBS) 2 mM L-Glutamine and 100 units penicillin/100 μg streptomycin, at 37° C. in 5% CO2.
Compounds were Tested in the Following Assays in Duplicate.
96-well XTT assay (GTL16 cells): One day prior to assay the growth media was aspirated off and assay media was added to cells. On the day of the assay, the cells were grown in assay media containing various concentrations of compounds (duplicates) on a 96-well flat bottom plate for 72 hours at 37° C. in 5% CO2. The starting cell number was 5000 cells per well and volume was 120 μl. At the end of the 72-hour incubation, 40 μl of XTT labeling mixture (50:1 solution of sodium 3′-[1-(phenylaminocarbonyl)-3,4-tetrazolium]-bis(4-methoxy-6-nitro) benzene sulfonic acid hydrate and Electron-coupling reagent: PMS (N-methyl dibenzopyrazine methyl sulfate) were added to each well of the plate. After an additional 5 hours of incubation at 37° C., the absorbance reading at 450 nm with a background correction of 650 nm was measured with a spectrophotometer.

For a further assay, the target named is T1, c-MET (Homo sapiens, UniProt P08581).
T1 construct: expressing the kinase domain of human Met; 6x Histidine tag (TEV-cleavable) (cleaved yes); made in house; host or cells: Sf9 insect cells
T1 sequence (P08581 1078-1345 limits assumed): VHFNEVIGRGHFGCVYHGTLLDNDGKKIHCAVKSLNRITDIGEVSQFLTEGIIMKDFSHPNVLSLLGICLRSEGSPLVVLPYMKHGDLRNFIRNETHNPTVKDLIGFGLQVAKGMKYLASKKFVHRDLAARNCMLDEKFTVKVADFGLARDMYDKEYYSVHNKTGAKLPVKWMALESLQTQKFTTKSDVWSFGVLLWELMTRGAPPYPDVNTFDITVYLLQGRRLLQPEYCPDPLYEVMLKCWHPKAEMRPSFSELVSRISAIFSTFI
The assay is described as follows: MET luminescence-based enzyme assay (Kinase-Glo). Type of assay: biochemical. Conditions: MET kinase domain, 10 μM ATP, 60 min at 21° C. On the procedure:
Screening data was evaluated using the equation: Z′=1-[3*(σ++σ−)/|μ+−μ−|] […] The subscript designates positive or negative controls. The Z′ score for a robust screening assay should be ≧0.50. The typical threshold=μ+−3*σ+. Any value that falls below the threshold was designated a “hit”.
MET Luminescence-Based Enzyme Assay
MET kinase (see below), Kinase-Glom (Promega Cat#V6712).
(diluted 50 μl into total of 10 ml miliQH2O daily=50 μM ATP working stock); 1% BSA (1 g BSA in 100 ml 0.1M HEPES, pH 7.5, stored at −20° C.), 100 mM MgCl2; 200 μM Staurosporine, 2× Kinase-Glo™ reagent (made fresh or stored at −20° C.).
Standard Assay Setup for 384-well format (20 μl kinase reaction, 40 μl detection reaction): 10 mM MgCl2; 0.3 mg/mil poly Glu-Tyr; 0.1% BSA; 1 μl test compound (in DMSO); 0.4 μg/ml MET kinase; 10 μM ATP; 100 mM HEPES buffer. Positive controls contained DMSO with no test compound. Negative controls contained […] staurosporine. The kinase reactions were initiated at time t=0 by the addition of ATP. Kinase reactions were incubated at 21° C. for 60 min, then 20 μl of Kinase-Glo™ reagent were added to each well to quench the kinase reaction and initiate the luminescence reaction. After a 20 min incubation at 21° C., the luminescence was detected in a plate-reading luminometer.
The cell pellets produced from half of a 12 L Sf9 insect cell culture expressing the kinase domain of human Met were resuspended in a buffer containing 50 mM Tris-HCl pH 7.7 and 250 mM NaCl, in a volume of approximately 40 ml per 1 L of original culture. […] The suspension was stirred for 1 hour at 4° C. Debris was removed by centrifugation for 30 minutes at 39,800×g at 4° C. […] The sample was then poured into a drip column at 4° C. and washed with 10 column volumes of 50 mM Tris-HCl pH 7.8, 500 mM NaCl, 10% Glycerol, […], and 10 mM Methionine. The protein was eluted using a step gradient with two column volumes each of the same buffer containing 50 mM, 200 mM, and 500 mM Imidazole, sequentially. […] The step gradient was run with 15% and then 80% of the B-side (A-side=50 mM Tris-HCl pH 7.8, 500 mM NaCl, 10% Glycerol, 10 mM Imidazole, and 10 mM Methionine; B-side=50 mM Tris-HCl pH 7.8, […], 10% Glycerol, 500 mM Imidazole, and 10 mM Methionine) for 4 column volumes each.
(In general: Kinase-Glo reads ATP consumption through a luciferase reaction.)

Where only a bound is given, the exact number is not on record here.

With `c1cnc2ccc(Cc3nnc4sc(NC5CC5)nn34)cc2c1` [cyclopropyl-(3-quinolin-6-ylmethyl-[1,2,4]triazolo[3,4-b][1,3,4]thiadiazol-6-yl)-amine], the IC50 (in general, the concentration needed to halve the response being measured) in the assay on GTL16 cells is at most 100 nM; against c-MET, under 100 nM.
